Measurements: ChEMBL document CHEMBL1201862, “PubChem BioAssay data set” (2004)
One block for each compound: values may come before it. Activity calls are given as the source filed them.

How the values were obtained:
H9c2 = assay: cells; format: functional, cell-based; settings: Rattus norvegicus, H9c2, Myocardium;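 further: confirmatory concentration-response retest of ultra-high-throughput screening hits for modulation of myocardial damage; cell death induced by hydrogen peroxide oxidative stress; compound pretreatment for 60 min then peroxide exposure for 2 h; potency is for protecting the cells against peroxide damage rather than for killing them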
[1] = biological target: Induced myeloid leukemia cell differentiation protein Mcl-1 (Homo sapiens, UniProt Q07820); format: functional
[2] = growth suppression of beta-catenin-knockout colon cells, dose response, cell-based, HCT116, human colon tumor (AID 1045); format: functional;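 further: HCT116 colon tumor cells with beta catenin knocked out; cells exposed to compound for 60 hours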
[3] = growth suppression of PTEN-null colon cells, dose response, cell-based, HCT116 PTEN knockout (AID 1047); format: functional;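 further: HCT116 colon tumor cells with PTEN knocked out; cells exposed to compound for 60 hours before readout; potency for loss of cell viability measured by luminescence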
[4] = Shn3 3'UTR reporter inhibitors, dose response, cell-based, Clone20 osteoblasts, firefly luciferase, cherry-picked (AID 624132); format: functional;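 further: firefly luciferase luminescence from reporter carrying the Shn3 3'UTR in osteoblasts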
[5] = HepG2 cell cytotoxicity, dose response, cytotoxicity control for Shn3 inhibitor project, CellTiter-Glo, cherry-picked (AID 624134); format: functional, cell-based
INS1 = assay: beta cell apoptosis inhibitors, cytokine rescue, dose response, luminescence, retest (AID 449756); format: functional, cell-based; settings: Rattus norvegicus;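 further: cell death triggered by IL-1 beta plus TNF-alpha plus IFN-gamma mixture; protective hits raise ATP signal compared with cytokine alone wells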
[6] = cytotoxicity in HEK-293T cells, dose response, cytotoxicity control for TCR NF-kB inhibitor project, luminescence, T-cell screen hits (AID 489026); format: functional, cell-based;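 further: cells exposed to compound about 14 hours before the viability readout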
[7] = biological target: T1, Calpain-2 catalytic subunit (Sus scrofa, UniProt P43367); assay: pig calpain II inhibitor potency, dose response, biochemical, fluorogenic peptide substrate (AID 1420); format: functional
T1 sequence (P43367 whole entry): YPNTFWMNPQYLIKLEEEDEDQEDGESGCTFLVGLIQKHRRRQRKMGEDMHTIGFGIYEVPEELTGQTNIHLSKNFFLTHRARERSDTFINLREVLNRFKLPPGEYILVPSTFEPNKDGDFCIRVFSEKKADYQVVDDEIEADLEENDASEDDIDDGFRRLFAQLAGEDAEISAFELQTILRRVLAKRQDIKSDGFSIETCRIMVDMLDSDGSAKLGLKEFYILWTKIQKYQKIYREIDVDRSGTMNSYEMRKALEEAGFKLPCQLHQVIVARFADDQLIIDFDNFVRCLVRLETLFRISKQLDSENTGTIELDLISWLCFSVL

[8] = biological target: T2, Polyadenylate-binding protein 1 (Homo sapiens, UniProt P11940); assay: PABP1 MLLE–PAM2 interaction inhibitors, dose response, miRNA deadenylation inhibitor project, biochemical, fluorescence polarization, Cy5-PAM2 peptide, secondary (AID 602260); format: functional; settings: read-out: IC50_Mean
[9] = biological target: T2, Polyadenylate-binding protein 1; assay: PABP1 MLLE–PAM2 binding inhibitor potency, dose response, biochemical, fluorescence polarization, FITC-PAM2 peptide (AID 602259); format: functional; settings: read-out: IC50_Mean
[10] = inhibitors of intracellular T. cruzi replication, confirmation, NIH3T3 host cells, beta-gal luminescence (AID 2044); format: functional, cell-based;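 further: intracellular parasites grown in NIH/3T3 mouse fibroblasts as host cells; luminescent beta-galactosidase reporter signal from transgenic T. cruzi replicating inside host cells; inhibitors lower the luminescence signal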
[11] = cytotoxicity toward NIH3T3 fibroblasts, dose response, counter-screen, cell-based, ATP luminescence, mouse fibroblasts (AID 2010); format: functional;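 further: cells exposed to compound for about 90 hours before reading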
[12] = biological target: Heat shock protein HSP 90-alpha (Homo sapiens, UniProt P07900); format: functional, organism-based

Sequence of Induced myeloid leukemia cell differentiation protein Mcl-1 (Q07820 whole entry): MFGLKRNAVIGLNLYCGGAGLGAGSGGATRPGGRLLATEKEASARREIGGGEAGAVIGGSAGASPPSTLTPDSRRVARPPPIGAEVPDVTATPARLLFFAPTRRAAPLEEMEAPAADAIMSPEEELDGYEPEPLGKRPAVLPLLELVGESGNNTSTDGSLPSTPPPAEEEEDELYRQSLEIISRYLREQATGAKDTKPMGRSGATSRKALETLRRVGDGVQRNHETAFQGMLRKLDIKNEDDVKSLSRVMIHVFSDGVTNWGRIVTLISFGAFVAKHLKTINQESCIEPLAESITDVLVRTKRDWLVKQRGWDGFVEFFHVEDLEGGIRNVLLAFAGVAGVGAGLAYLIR
T2 sequence (P11940 whole entry): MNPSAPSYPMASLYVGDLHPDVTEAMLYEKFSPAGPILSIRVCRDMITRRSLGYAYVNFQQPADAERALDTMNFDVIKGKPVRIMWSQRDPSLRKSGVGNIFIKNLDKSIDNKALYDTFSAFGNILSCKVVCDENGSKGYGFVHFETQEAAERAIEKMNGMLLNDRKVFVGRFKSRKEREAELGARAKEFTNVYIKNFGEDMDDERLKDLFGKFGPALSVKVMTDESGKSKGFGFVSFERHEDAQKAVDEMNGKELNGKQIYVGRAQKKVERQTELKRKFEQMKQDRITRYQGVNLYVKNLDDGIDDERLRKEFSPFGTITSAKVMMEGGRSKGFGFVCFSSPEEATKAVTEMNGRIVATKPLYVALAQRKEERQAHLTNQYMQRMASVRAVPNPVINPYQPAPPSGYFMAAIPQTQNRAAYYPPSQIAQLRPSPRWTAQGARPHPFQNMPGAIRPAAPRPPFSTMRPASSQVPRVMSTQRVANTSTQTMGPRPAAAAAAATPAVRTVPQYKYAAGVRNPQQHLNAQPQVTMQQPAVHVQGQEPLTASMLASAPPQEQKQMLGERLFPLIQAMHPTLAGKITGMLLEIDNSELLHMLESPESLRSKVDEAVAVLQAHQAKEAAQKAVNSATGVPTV

SMILES: COc1cccc(-c2ccc(SCC(=O)N3CCN(c4ccccc4)CC3)nn2)c1
IC50 (H9c2): 16.1 µM (active)

SMILES: COc1cc(C(=O)Nc2ccc(NC(=O)c3ccco3)nc2)cc(OC)c1OC
IC50 (H9c2): 21.4 µM (active)

IC50 [1]: 2.71 µM (active)
SMILES: Cc1cc(N(CCO)CCO)ccc1C(c1ccc(N(CCO)CCO)cc1C)c1ccccc1Cl

SMILES: O=C(CCc1nc(O)c2ccccc2n1)Nc1ccc(F)cc1
IC50 (H9c2): > 79 µM (inactive)

IC50 [1]: 6.14 µM (not active)
SMILES: O=c1c2c3nc4ccccc4nc3n(Cc3ccccc3)c2ncn1Cc1ccco1

SMILES: COC(=O)c1ccc(/C=C/C(=O)c2ccc(OC)c(OC)c2)cc1
EC50 [2]: 7.25 µM (active)
EC50 [3]: 8.4 µM (active)

SMILES: Cc1nc(-n2ncc(C#N)c2N)c2c3c(sc2n1)CCC3
EC50 [2]: 32 µM (active)
EC50 [3]: 24.8 µM (active)

SMILES: O=C(/C=C/c1ccc([N+](=O)[O-])cc1)c1cccnc1
EC50 [2]: 4.4 µM (active)
EC50 [3]: 5.8 µM (active)

SMILES: Cc1ccc(S(=O)(=O)NCc2ccncc2)cc1C
AC50 [4]: 0.585 µM (active)
AC50 [5]: 2.43 µM (active)
AC50 (INS1): 3.06 µM (active)
IC50 [6]: > 80 µM (inactive)

SMILES: COc1cc(-c2cc(C(=O)Nc3c(Cl)cc(Cl)cc3Cl)c3ccccc3n2)cc(OC)c1OC
EC50 [2]: 44.6 µM (active)
EC50 [3]: 26 µM (active)

SMILES: Cn1cc([N+](=O)[O-])c(C(=O)Nc2cc(Oc3cccnc3)cc([N+](=O)[O-])c2)n1
EC50 [2]: 1.02 µM (active)
EC50 [3]: 1.24 µM (active)
IC50 [7]: 15.3 µM (not active)

SMILES: CCOC(=O)N1CCN(C(=O)C2CCCN(Cc3nc(-c4ccc(Cl)cc4)oc3C)C2)CC1 (stereo unspecified)
IC50 [6]: > 80 µM (inactive)

SMILES: O=C(NC1CCCCC1)c1nc[nH]c1C(=O)Nc1ccc([N+](=O)[O-])cc1
EC50 [2]: 8.87 µM (active)
EC50 [3]: 8.84 µM (active)

SMILES: Cc1ccc2c(c1)c1nnc(S)nc1n2CCc1ccccc1
IC50 [8]: > 66 µM (inactive)
IC50 [9]: > 66 µM (inactive)
EC50 [10]: 2.1 µM (active)
EC50 [11]: > 60 µM (not active)

SMILES: Cc1ccc2nc(N3CC(=O)Nc4ccccc43)nc(-c3ccccc3)c2c1
EC50 [2]: 10.4 µM (active)
EC50 [3]: 11.5 µM (active)

AC50 [12]: 3.75 µM (active)
SMILES: CCCc1cc(=O)oc2cc(OCc3ccc(C(=O)O)cc3)ccc12

IC50 [1]: 3.47 µM (not active)
SMILES: COc1cc(/C=C(/NC(C)=O)C(=O)O)cc(Cl)c1OCc1ccc(Br)cc1
